# Like-named read-outs stand apart in the source and are kept apart here. Residues, ends and D or L forms follow the SMILES beside them.
# How the values were obtained:
# [1] = tested on: Caco-2 cells (human intestinal epithelial cells); experiment: Membrane strengthening experiment (TER recovery of barrier function after TNF-α); format: cell-based; settings: for function of strengthening the barrier function (membrane-strengthening ability): result in words, FIG. 1A-1H
# [2] = tested on: Lactobacillus acidophilus AJ13778; experiment: Minimum inhibitory concentration, spot-on-lawn method; format: cell-based
# [3] = tested on: Enterococcus faecalis AJ110149; experiment: as above; format: cell-based
# [4] = tested on: Lactobacillus salivarius AJ110152; experiment: as above; format: cell-based; settings: for MIC: Ligilactobacillus salivarius
# [5] = tested on: Bacteroides fragilis JCM11019; experiment: as above; format: cell-based
# [6] = tested on: Bifidobacterium thermophilum AJ110569; experiment: as above; format: cell-based
# [7] = Chicken growth test (body weight gain and feed conversion ratio); format: in vivo, broiler chickens; settings: for BWG / FCR: 0-3 weeks
# [8] = tested on: Escherichia coli MG1665; experiment: Minimum inhibitory concentration, spot-on-lawn method; format: cell-based
# [9] = tested on: Clostridium perfringens AJ3350; experiment: microbe, parasite or virus in culture; format: cell-based; settings: for Minimum inhibitory concentration: indicator strain Clostridium perfringens AJ3350, GAM, 37° C.; for MIC: Clostridium perfringens, AJ3350, read-out: Minimum inhibitory concentration
# [10] = tested on: Salmonella enterica AJ2785; experiment: microbe, parasite or virus in culture; format: cell-based; settings: for MIC: Salmonella enterica, AJ2785, read-out: Minimum inhibitory concentration
# [11] = Metabolome analysis of intestinal tract contents and blood; format: in vivo, chickens; settings: in vivo
# Description: It is thus considered that coated-Phe and coated-Tyr are assimilated by intestinal bacteria in feces and rapidly metabolized in blood.
# [12] = material conc. 10 uM, TER barrier function recovery, 24 h
# [13] = material conc. 10 uM, comparison value with Ctr (TNFα alone), 24 h, 1.1 or more = membrane-strengthening ability
# [14] = indicator strain Lactobacillus acidophilus AJ13778, MRS, 37° C.
# [15] = indicator strain Enterococcus faecalis AJ110149, MRS, 30° C., ND = no effect detected
# [16] = indicator strain Lactobacillus salivarius AJ110152, MRS, 37° C.
# [17] = indicator strain Bacteroides fragilis JCM11019, GAM, 37° C.
# [18] = indicator strain Bifidobacterium thermophilum AJ110569, GAM, 37° C.
# [19] = Table 3, addition 10 ppm in feed, negative control = 100
# [20] = Table 4, addition 10 ppm in feed
# [21] = Table 6, addition 10 ppm, NC = 100%, listed as PC1 (W/Avilamycin)
# [22] = Table 6, addition 10 ppm, NC = 100%, listed as PC2 (W/Avilamycin)
# [23] = indicator strain Escherichia coli MG1665, LB, 37° C.
# [24] = indicator strain Lactobacillus acidophilus AJ13778, MRS, 37° C., read-out: Minimum inhibitory concentration
# [25] = indicator strain Lactobacillus salivarius AJ110152, MRS, 37° C., read-out: Minimum inhibitory concentration
# [26] = indicator strain Bacteroides fragilis JCM11019, GAM, 37° C., read-out: Minimum inhibitory concentration
# [27] = indicator strain Bifidobacterium thermophilum AJ110569, GAM, 37° C., read-out: Minimum inhibitory concentration
# [28] = Escherichia coli, MG1665, read-out: Minimum inhibitory concentration
# [29] = indicator strain Escherichia coli MG1665, LB, 37° C., read-out: Minimum inhibitory concentration
# [30] = material conc. 1 uM, comparison value with Ctr (TNFα alone), 24 h
# [31] = indicator strain Enterococcus faecalis AJ110149, MRS, 30° C., ND = no effect detected, read-out: Minimum inhibitory concentration
# [32] = Table 4, addition 200 ppm (core material) in feed
# [33] = Homo sapiens, Caco-2, 24 h, read-out: Recovery ratio (%)
compound,measurement,setting,value
"CC1=C(/C=C/C(C)=C/C=C/C(C)=C/C=C/C=C(C)/C=C/C=C(C)/C=C/C2=C(C)C(=O)[C@@H](O)CC2(C)C)C(C)(C)C[C@H](O)C1=O [Astaxanthin, astaxanthin]",activity at 10 µg/mL,"[1]; Homo sapiens, Caco-2, material conc. 10 mg/L, TER barrier function recovery, 24 h, read-out: Recovery ratio (%)",132%
same,Recovery ratio/ctr,"[1]; material conc. 10 mg/L, comparison value with Ctr (TNFα alone), 24 h",1.14
same,function of strengthening the barrier function (membrane-strengthening ability),[1],observed to have the function of strengthening the barrier function
"COC[C@H]1O[C@@H](OC2OC[C@@H]3O[C@]4(O[C@H]3[C@H]2OC(=O)C(C)C)O[C@H](C)[C@@](O)(C(C)=O)[C@@H]2OCO[C@H]24)[C@@H](OC)[C@@H](O)[C@@H]1O[C@@H]1O[C@H](C)[C@H](OC)[C@H](O[C@H]2C[C@@]3(C)OC4(C[C@@H](O)[C@H](O[C@H]5C[C@@H](O)[C@H](OC(=O)c6c(C)c(Cl)c(O)c(Cl)c6OC)[C@@H](C)O5)[C@@H](C)O4)O[C@@H]3[C@@H](C)O2)[C@H]1O (stereo partly drawn) [Avilamycin, avilamycin]",Recovery ratio (%),[1]; [12],127%
same,Recovery ratio/ctr,[1]; [13],1.10
same,function of strengthening the barrier function (membrane-strengthening ability),[1],had a function of strengthening the barrier function even at a low concentration
same,Minimum inhibitory concentration,[2]; [14],16 mg/mL
same,Minimum inhibitory concentration,[3]; [15],2 mg/mL
same,Minimum inhibitory concentration,[4]; [16],8 mg/mL
same,Minimum inhibitory concentration,[5]; [17],8 mg/mL
same,Minimum inhibitory concentration,[6]; [18],16 mg/mL
same,BWG,[7]; [19],110%
same,FCR,[7]; [19],96%
same,BWG,[7]; [20],107%
same,FCR,[7]; [20],95%
same,BWG,[7]; [21],104%
same,FCR,[7]; [21],97%
same,BWG,[7]; [22],107%
same,FCR,[7]; [22],94%
same,Minimum inhibitory concentration,[8]; [23],>100 mg/mL
same,Minimum inhibitory concentration,[9],1 mg/mL
same,Minimum inhibitory concentration,[10],>100 mg/mL
"CC[C@H](C)[C@H](N)C1=N[C@H](C(=O)N[C@@H](CC(C)C)C(=O)N[C@H](CCC(=O)O)C(=O)N[C@H](C(=O)N[C@H]2CCCCNC(=O)[C@H](CC(N)=O)NC(=O)[C@@H](CC(=O)O)NC(=O)[C@H](Cc3cnc[nH]3)NC(=O)[C@@H](Cc3ccccc3)NC(=O)[C@H]([C@@H](C)CC)NC(=O)[C@@H](CCCN)NC2=O)[C@@H](C)CC)CS1 [Bacitracin] (HELM PEPTIDE1{[CC[C@H](C)[C@H](N)C1=N[C@H](C(=O)[*:2])CS1].L.[dE].I.K.[NCCC[C@@H](N[*:1])C(=O)[*:2]].I.[dF].H.[dD].N}$PEPTIDE1,PEPTIDE1,5:R3-11:R2$$$V2.0)",MIC,[2]; [24],32000 µg/mL
same,MIC,[4]; [25],32000 µg/mL
same,MIC,[5]; [26],> 100000 µg/mL
same,MIC,[6]; [27],4000 µg/mL
same,MIC,[8]; [28],> 100 mg/mL
same,MIC,[10],> 100 mg/mL
"CCCC(=O)O [Butylate, butyric acid]",activity at 2000 µM,"[1]; Homo sapiens, Caco-2, material conc. 2.0 mM, TER barrier function recovery, 24 h, read-out: Recovery ratio (%)",131%
same,Recovery ratio/ctr,"[1]; material conc. 2.0 mM, comparison value with Ctr (TNFα alone), 24 h",1.13
CN(C)[C@@H]1C(O)=C(C(N)=O)C(=O)[C@@]2(O)C(O)=C3C(=O)c4c(O)ccc(Cl)c4[C@@](C)(O)[C@H]3C[C@@H]12 [Chlortetracycline],MIC,[2]; [24],4000 µg/mL
same,MIC,[4]; [25],3000 µg/mL
same,MIC,[5]; [26],4000 µg/mL
same,MIC,[6]; [27],16000 µg/mL
same,MIC,[8]; [29],50 mg/mL
same,MIC,[9],62 µg/mL
same,MIC,[10],50 mg/mL
"COc1cc(/C=C/C(=O)CC(=O)/C=C/c2ccc(O)c(OC)c2)ccc1O [Curcumin, curcumin]",activity at 200 µM,"[1]; Homo sapiens, Caco-2, material conc. 200 uM, TER barrier function recovery, 24 h, read-out: Recovery ratio (%)",128%
same,Recovery ratio/ctr,"[1]; material conc. 200 uM, comparison value with Ctr (TNFα alone), 24 h",1.14
"NC(=O)CC[C@H](N)C(=O)O [Glutamine, glutamine]",activity at 20000 µM,"[1]; Homo sapiens, Caco-2, material conc. 20 mM, TER barrier function recovery, 24 h, read-out: Recovery ratio (%)",136%
same,Recovery ratio/ctr,"[1]; material conc. 20 mM, comparison value with Ctr (TNFα alone), 24 h",1.18
CC[C@@]1([C@@H]2O[C@@H]([C@H]3O[C@@](O)(CO)[C@H](C)C[C@@H]3C)C[C@@H]2C)CC[C@H]([C@]2(C)CC[C@]3(C[C@H](O)[C@@H](C)[C@@H]([C@@H](C)[C@@H](OC)[C@H](C)C(=O)O)O3)O2)O1 [Monensin],activity at 1 µM,"[1]; Homo sapiens, Caco-2, material conc. 1 uM, TER barrier function recovery, 24 h, read-out: Recovery ratio (%)",126%
same,Recovery ratio/ctr,[1]; [30],1.13
same,MIC,[2]; [24],2000 µg/mL
same,MIC,[3]; [31],2000 µg/mL
same,MIC,[4]; [25],1000 µg/mL
same,MIC,[6]; [27],2000 µg/mL
same,MIC,[8]; [28],> 100 mg/mL
same,MIC,[9],1000 µg/mL
same,MIC,[10],> 100 mg/mL
"N[C@@H](Cc1ccccc1)C(=O)O [Phe, phenylalanine]",detection in the intestinal tract contents or blood,[11],not detected
same,BWG,[7]; [32],106%
same,FCR,[7]; [32],98%
same,body weight gain effect and feed conversion ratio improvement effect,"[7]; result in words, healthy broilers, 0 to 21 days of age",A certain degree of body weight gain effect was confirmed
"O=C(O)C(O)Cc1ccccc1 (stereo not drawn) [Phenyl-lactate, phenyl lactatic acid]",Recovery ratio (%),"[1]; material conc. 0.2 mM, TER barrier function recovery, 24 h",129%
same,Recovery ratio/ctr,"[1]; material conc. 0.2 mM, comparison value with Ctr (TNFα alone), 24 h",1.12
CC[C@@H](C(=O)[C@@H](C)[C@@H](O)[C@H](C)[C@@H]1O[C@@H]([C@@H](CC)C(=O)O)CC[C@@H]1C)[C@H]1O[C@]2(C=C[C@@H](O)[C@]3(CC[C@@](C)([C@H]4CC[C@](O)(CC)[C@H](C)O4)O3)O2)[C@H](C)C[C@@H]1C [Salinomycin],activity at 1 µM,[1]; [33],124%
same,Recovery ratio/ctr,[1]; [30],1.10
same,MIC,"[2]; Lactobacillus acidophilus, AJ13778, read-out: Minimum inhibitory concentration",2000 µg/mL
same,MIC,"[3]; Enterococcus faecalis, AJ110149, read-out: Minimum inhibitory concentration",500 µg/mL
same,MIC,"[4]; AJ110152, read-out: Minimum inhibitory concentration",1000 µg/mL
same,MIC,"[5]; Bacteroides fragilis, JCM11019, read-out: Minimum inhibitory concentration",64000 µg/mL
same,MIC,"[6]; Bifidobacterium thermophilum, AJ110569, read-out: Minimum inhibitory concentration",2000 µg/mL
same,MIC,[8]; [28],> 100 mg/mL
same,MIC,[9],1000 µg/mL
same,MIC,[10],> 100 mg/mL
"N[C@@H](Cc1c[nH]c2ccccc12)C(=O)O [Tryptophan, tryptophan]",activity at 4000 µM,[1]; [33],128%
same,Recovery ratio/ctr,"[1]; material conc. 4 mM, comparison value with Ctr (TNFα alone), 24 h",1.11
CC[C@H]1OC(=O)C[C@@H](O)[C@H](C)[C@@H](O[C@@H]2O[C@H](C)[C@@H](O[C@H]3C[C@@](C)(O)[C@@H](O)[C@H](C)O3)[C@H](N(C)C)[C@H]2O)[C@@H](CC=O)C[C@@H](C)C(=O)/C=C/C(C)=C/[C@@H]1CO[C@@H]1O[C@H](C)[C@@H](O)[C@@H](OC)[C@H]1OC [Tylosin],activity at 10 µM,"[1]; Homo sapiens, Caco-2, material conc. 10 uM, TER barrier function recovery, 24 h, read-out: Recovery ratio (%)",135%
same,Recovery ratio/ctr,[1]; [13],1.17
same,MIC,[2]; [24],1000 µg/mL
same,MIC,[3]; [31],4000 µg/mL
same,MIC,[4]; [25],1000 µg/mL
same,MIC,[5]; [26],4000 µg/mL
same,MIC,[6]; [27],10 µg/mL
same,MIC,[8]; [29],> 100 mg/mL
same,MIC,[9],4000 µg/mL
same,MIC,[10],> 100 mg/mL
"CC(C)[C@H](N)C(=O)O [Valine, valine]",Recovery ratio/ctr,"[1]; 24 h, 200 µM",1.13
same,activity at 200 µM,"[1]; Homo sapiens, Caco-2, material conc. 0.2 mM, TER barrier function recovery, 24 h, read-out: Recovery ratio (%)",130%
Colistin,Recovery ratio (%),"[1]; material conc. 1 uM, TER barrier function recovery, 24 h",130%
same,Recovery ratio/ctr,[1]; [30],1.13
same,function of strengthening the barrier function (membrane-strengthening ability),[1],had a function of strengthening the barrier function even at a low concentration
same,Minimum inhibitory concentration,[2]; [14],>100 mg/mL
same,Minimum inhibitory concentration,[3]; [15],>100 mg/mL
same,Minimum inhibitory concentration,[4]; [16],>100 mg/mL
same,Minimum inhibitory concentration,[5]; [17],>100 mg/mL
same,Minimum inhibitory concentration,[6]; [18],128 mg/mL
same,Minimum inhibitory concentration,[8]; [23],4 mg/mL
same,Minimum inhibitory concentration,[9],>100 mg/mL
same,Minimum inhibitory concentration,[10],>100 mg/mL
Zinc Bacitracin,Recovery ratio (%),[1]; [12],124%
same,Recovery ratio/ctr,[1]; [13],1.10

# From patent US11857596B2, “Animal feed additive and animal feed” (priority 2018, dated 2024)
